{"source": "patent US5352704A", "about": "“Guanidinobenzene derivatives” (priority 1989, dated 1994)", "key": {"[1]": {"conditions": "related art (Virology, Raven Press, pp 323-348, 1985); cited from earlier work"}, "[2]": {"test_system": "human influenza virus A/WSN", "assay": "Inhibitory action on plaque formation by human influenza virus", "format": "cell-based, human influenza virus A/WSN (in MDCK dog kidney cells)", "conditions": "unidentified influenza virus, MDCK, 72 h, read-out: Inhibition ratio (%) of plaque formation"}, "[3]": {"test_system": "influenza virus A/Udron/72 (H3N2)", "format": "in vivo, mole hamster", "conditions": "10.0 mg/ml, 50 μl intranasal at 6, 11 and 24 hours after infection, 28 hours from infection, n = 5"}}, "data": [{"smiles": "NC12CC3CC(CC(C3)C1)C2", "note": "[amantadine]", "values": [{"measurement": "efficacy on frequent use", "setting": "[1]", "value": "the higher the frequency of use, the lower becomes efficacy"}, {"measurement": "side effects", "setting": "[1]", "value": "teratogenicity"}]}, {"smiles": "N=C(N)Nc1ccc(C(=O)Nc2ccc3cc(C(=N)N)ccc3c2)cc1", "note": "[Compound B, 4-guanidinobenzoic acid 6-amidino-2-naphthylamide.2 methanesulfonate]", "values": [{"measurement": "inhibition at 10 µg/mL", "setting": "[2]", "value": 31.4, "unit": "%"}, {"measurement": "inhibition at 20 µg/mL", "setting": "[2]", "value": 67.6, "unit": "%"}, {"measurement": "inhibition at 50 µg/mL", "setting": "[2]", "value": 82.4, "unit": "%"}, {"measurement": "% Inhibition (virus in lung)", "setting": "[3]; **P < 0.01, tTest", "value": 99.0, "unit": "%"}, {"measurement": "PFU/lung", "setting": "[3]; control 4.8 ± 2.2 × 10^5", "value": "5.0 ± 10.0 × 10^3 PFU/lung"}]}, {"smiles": "N=C(N)Nc1ccc(C(=O)Nc2ccc(C(=N)N)cc2)cc1", "note": "[Compound A, 4-guanidinobenzoic acid 4-amidinobenzamide.2 methanesulfonate]", "values": [{"measurement": "inhibition at 12.5 µg/mL", "setting": "[2]", "value": 2.9, "unit": "%"}, {"measurement": "inhibition at 25 µg/mL", "setting": "[2]", "value": 51, "unit": "%"}, {"measurement": "inhibition at 50 µg/mL", "setting": "[2]", "value": 80.8, "unit": "%"}]}]}
